In US9376420B2 (YUHAN CORPORATION, priority 2012, dated 2016):

Molecular target: T1, human LXRβ (Homo sapiens, UniProt P55055)
T1 construct: expressed in transfected cells; host or cells: HEK293 cells (ATCC CRL-1573), transient transfection with pFA-hLXRβ/GAL4 and pUAS
T1 sequence (P55055 222-460 limits assumed): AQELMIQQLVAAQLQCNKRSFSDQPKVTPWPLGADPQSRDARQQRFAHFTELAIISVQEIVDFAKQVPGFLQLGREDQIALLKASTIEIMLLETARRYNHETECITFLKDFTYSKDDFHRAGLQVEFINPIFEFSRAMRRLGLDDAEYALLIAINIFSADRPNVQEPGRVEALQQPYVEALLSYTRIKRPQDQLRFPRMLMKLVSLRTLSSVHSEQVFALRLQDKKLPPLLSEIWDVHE
Experiment: Assay for Transcriptional Activity of LXRβ (GAL4-hLXRβ LBD luciferase reporter, transient transfection)
Format: cell-based
Conditions: HEK293 cells transfected with pFA-hLXRβ/GAL4 and pUAS, 24 hours; for Emax: fold value in comparison with the control (DMSO-treated group); for EC50: increase of transcriptional activity of LXRβ, average of three independent tests
In short: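 HEK293 cells transiently co-transfected with GAL4-hLXRβ LBD and 5×GAL4-UAS luciferase reporter, treated 24 h at 37 °C with compounds over 9 points (0.01–50 μM, half-log). Luminescence read after lysis; EC50 from four-parameter fit, mean of three independent tests, with a known LXR agonist as positive control.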

Structure (SMILES) | Emax [fold] | EC50 [nM]
CSc1ccc(-c2ccc(C3CC(C(O)(C(F)(F)F)C(F)(F)F)=NN3c3ccc(F)cc3F)cc2)cn1 (centres unmarked) [Example 382, 1-(2,4-difluoro-phenyl)-5-[4-(6-methanesulfanyl-pyridin-3-yl)-phenyl]-3-[di-(trifluoromethyl)-hydroxy-methyl]-4,5-dihydro-1H-pyrazole] | 44 | 772
CS(=O)(=O)N1CCN(c2ccc(C3CC(C(O)(C(F)(F)F)C(F)(F)F)=NN3c3ccc(F)cc3F)cc2)CC1 (centres unmarked) [Example 406, 1-(2,4-difluoro-phenyl)-5-[4-(4-methanesulfonyl-piperazin-1-yl)-phenyl]-3-[di-(trifluoromethyl)-hydroxy-methyl]-4,5-dihydro-1H-pyrazole] | 53 | 966
O=S(=O)(C1CC1)N1CCCN(c2ccc(C3CC(C(O)(C(F)(F)F)C(F)(F)F)=NN3c3ccccc3Cl)cc2)CC1 (centres unmarked) [Example 325, 1-(2-chloro-phenyl)-5-[4-(4-cyclopropanesulfonyl-homopiperazin-1-yl)-phenyl]-3-[di-(trifluoromethyl)-hydroxy-methyl]-4,5-dihydro-1H-pyrazole] | 53 | 800
COc1ccc(-c2cccc(C3CC(C(F)(F)C(F)(F)F)=NN3c3ccccc3Cl)c2)cc1OC (centres unmarked) [Example 112, 1-(2-chloro-phenyl)-5-(3′,4′-dimethoxy-biphenyl-3-yl)-3-pentafluoroethyl-4,5-dihydro-1H-pyrazole] | 57 | 8520
CN(C)S(=O)(=O)N1CC=C(c2cccc(C3CC(C(O)(C(F)(F)F)C(F)(F)F)=NN3c3ccccc3Cl)c2)CC1 (centres unmarked) [Example 240, 1-(2-chloro-phenyl)-5-[3-(1-dimethylsulfamoyl-1,2,3,6-tetrahydropyridin-4-yl)-phenyl]-3-[di-(trifluoromethyl)-hydroxy-methyl]-4,5-dihydro-1H-pyrazole] | 44 | 157
CSc1cccc(-c2ccc(F)c(C3CC(C(F)(F)C(F)(F)F)=NN3c3ccc(F)cc3F)c2)c1 (centres unmarked) [Example 138, 1-(2,4-difluoro-phenyl)-5-(4-fluoro-3′-(methylsulfanyl)biphenyl-3-yl)-3-pentafluoroethyl-4,5-dihydro-1H-pyrazole] | 153 | 501
CS(=O)(=O)c1cccc(-c2ccc(C3CC(C(O)(C(F)(F)F)C(F)(F)F)=NN3c3ccccc3Cl)cc2)n1 (centres unmarked) [Example 286, 1-(2-chloro-phenyl)-5-{4-[6-(methylsulfonyl)-pyridin-2-yl]-phenyl}-3-[di-(trifluoromethyl)-hydroxy-methyl]-4,5-dihydro-1H-pyrazole] | 36 | 632
CN(C)S(=O)(=O)N1CCCN(c2ccc(C3CC(C(O)(C(F)(F)F)C(F)(F)F)=NN3c3ccc(F)cc3F)cc2)CC1 (centres unmarked) [Example 411, 1-(2,4-difluoro-phenyl)-5-[4-(4-dimethylsulfamoyl-homopiperazin-1-yl)-phenyl]-3-[di-(trifluoromethyl)-hydroxy-methyl]-4,5-dihydro-1H-pyrazole] | 62 | 461
CN(C)C(=O)N1CC=C(c2ccc(C3CC(C(O)(C(F)(F)F)C(F)(F)F)=NN3c3ccc(F)cc3F)cc2)CC1 (centres unmarked) [Example 403, 1-(2,4-difluoro-phenyl)-5-[4-(1-dimethylcarbamoyl-1,2,3,6-tetrahydropyridin-4-yl)-phenyl]-3-[di-(trifluoromethyl)-hydroxy-methyl]-4,5-dihydro-1H-pyrazole] | 22 | 1170
CNCCCS(=O)(=O)c1cccc(-c2cccc(N3N=C(C(F)(F)C(F)(F)F)CC3c3ccc(F)cc3F)c2)c1.Cl (centres unmarked) [Example 212, 5-(2,4-difluoro-phenyl)-1-[3′-(3-methylamino-propane-1-sulfonyl)-biphenyl-3-yl]-3-pentafluoroethyl-4,5-dihydro-1H-pyrazole hydrochloride] | 9 | 1620
Cc1ccc(-c2ccc(C3CC(C(O)(C(F)(F)F)C(F)(F)F)=NN3c3ccccc3Cl)cc2)c(F)c1 (centres unmarked) [Example 265, 1-(2-chloro-phenyl)-5-(2′-fluoro-4′-methyl-biphenyl-4-yl)-3-[di-(trifluoromethyl)-hydroxy-methyl]-4,5-dihydro-1H-pyrazole] | 97 | 239
O=S(=O)(C1CC1)N1CCN(c2ccc(C3CC(C(O)(C(F)(F)F)C(F)(F)F)=NN3c3ccccc3Cl)cc2)CC1 (centres unmarked) [Example 315, 1-(2-chloro-phenyl)-5-[4-(4-cyclopropanesulfonyl-piperazin-1-yl)-phenyl]-3-[di-(trifluoromethyl)-hydroxy-methyl]-4,5-dihydro-1H-pyrazole] | 59 | 1490
Fc1cncc(-c2cccc(C3CC(C(F)(F)C(F)(F)F)=NN3c3ccc(F)cc3F)c2)c1 (centres unmarked) [Example 74, 1-(2,4-difluoro-phenyl)-5-(3-(5-fluoro-pyridin-3-yl)-phenyl)-3-pentafluoroethyl-4,5-dihydro-1H-pyrazole] | 29 | 2960
CN(C)c1ccc(-c2ccc(C3CC(C(O)(C(F)(F)F)C(F)(F)F)=NN3c3ccccc3Cl)cc2)cc1 (centres unmarked) [Example 254, 1-(2-chloro-phenyl)-5-(4′-dimethylamino-biphenyl-4-yl)-3-[di-(trifluoromethyl)-hydroxy-methyl]-4,5-dihydro-1H-pyrazole] | 50 | 7060

Further molecules by falling EC50, results first:

Emax [fold] | EC50 [nM] | Structure (SMILES)
45 | 12800 | COc1ccc(-c2cc(C3CC(C(F)(F)C(F)(F)F)=NN3c3ccc(F)cc3F)ccc2F)cn1 (centres unmarked) [Example 131, 1-(2,4-difluoro-phenyl)-5-[4-fluoro-3-(6-methoxy-pyridin-3-yl)-phenyl]-3-pentafluoroethyl-4,5-dihydro-1H-pyrazole]
16 | 6140 | CS(=O)(=O)c1cncc(-c2cccc(N3N=C(C(F)(F)C(F)(F)F)CC3c3ccc(F)cc3F)c2)c1 (centres unmarked) [Example 207, 5-(2,4-difluoro-phenyl)-1-[3-(5-methanesulfonyl-pyridin-3-yl)-phenyl]-3-pentafluoroethyl-4,5-dihydro-1H-pyrazole]
79 | 3280 | CS(=O)(=O)N1CCN(c2ccnc(C3CC(C(F)(F)C(F)(F)F)=NN3c3ccc(F)cc3F)c2)CC1 (centres unmarked) [Example 183, 1-(2,4-difluoro-phenyl)-5-[4-(4-methanesulfonyl-piperazin-1-yl)-pyridin-2-yl]-3-pentafluoroethyl-4,5-dihydro-1H-pyrazole]
58 | 1080 | COc1ccc(-c2ccc(C3CC(C(O)(C(F)(F)F)C(F)(F)F)=NN3c3ccccc3Cl)cc2)c(Cl)c1 (centres unmarked) [Example 255, 5-(2′-chloro-4′-methoxy-biphenyl-4-yl)-1-(2-chloro-phenyl)-3-[di-(trifluoromethyl)-hydroxy-methyl]-4,5-dihydro-1H-pyrazole]
87 | 850 | CSc1cccc(-c2ccc(C3CC(C(O)(C(F)(F)F)C(F)(F)F)=NN3c3ccccc3Cl)c(F)c2)c1 (centres unmarked) [Example 338, 1-(2-chloro-phenyl)-5-(3-fluoro-3′-methylsulfanyl-biphenyl-4-yl)-3-[di-(trifluoromethyl)-hydroxy-methyl]-4,5-dihydro-1H-pyrazole]
68 | 731 | N#Cc1cncc(-c2ccc(C3CC(C(O)(C(F)(F)F)C(F)(F)F)=NN3c3ccccc3Cl)cc2)c1 (centres unmarked) [Example 278, 1-(2-chloro-phenyl)-5-[4-(5-cyano-pyridin-3-yl)-phenyl]-3-[di-(trifluoromethyl)-hydroxy-methyl]-4,5-dihydro-1H-pyrazole]
112 | 617 | CSc1ccc(-c2ccc(C3CC(C(O)(C(F)(F)F)C(F)(F)F)=NN3c3ccccc3Cl)cc2)cc1 (centres unmarked) [Example 243, 1-(2-chloro-phenyl)-5-[4′-(methylsulfanyl)-biphenyl-4-yl]-3-[di-(trifluoromethyl)-hydroxy-methyl]-4,5-dihydro-1H-pyrazole]
57 | 519 | OC(C1=NN(c2ccccc2Cl)C(c2ccc(-c3cnc4ccccc4c3)cc2)C1)(C(F)(F)F)C(F)(F)F (centres unmarked) [Example 259, 1-(2-chloro-phenyl)-5-(4-quinolin-3-yl-phenyl)-3-[di-(trifluoromethyl)-hydroxy-methyl]-4,5-dihydro-1H-pyrazole]
73 | 479 | CC(C)S(=O)(=O)N1CC=C(c2ccc(C3CC(C(O)(C(F)(F)F)C(F)(F)F)=NN3c3ccccc3Cl)cc2)CC1 (centres unmarked) [Example 301, 1-(2-chloro-phenyl)-5-{4-[1-(propane-2-sulfonyl)-1,2,3,6-tetrahydropyridin-4-yl]-phenyl}-3-[di-(trifluoromethyl)-hydroxy-methyl]-4,5-dihydro-1H-pyrazole]
38 | 450 | N#Cc1ncccc1-c1ccc(C2CC(C(O)(C(F)(F)F)C(F)(F)F)=NN2c2ccc(F)cc2F)cc1 (centres unmarked) [Example 380, 5-[4-(2-cyano-pyridin-3-yl)-phenyl)-1-(2,4-difluoro-phenyl)-3-[di-(trifluoromethyl)-hydroxy-methyl]-4,5-dihydro-1H-pyrazole]
26 | 173 | CS(=O)(=O)c1ccc(-c2ccc(C3CC(C(O)(C(F)(F)F)C(F)(F)F)=NN3c3ccc(F)cc3F)cc2)nc1 (centres unmarked) [Example 391, 1-(2,4-difluoro-phenyl)-5-[4-(5-methanesulfonyl-pyridin-2-yl)-phenyl]-3-[di-(trifluoromethyl)-hydroxy-methyl]-4,5-dihydro-1H-pyrazole]
